In US20260234157A1, “COMPOUND AND METHOD FOR TARGETED DEGRADATION OF ANDROGEN RECEPTOR” (Gan & Lee Pharmaceuticals Co., Ltd., priority 2023, published 2026):
Substitutions are numbered along the chain they refer to. Read-outs that look alike come from different tables or passages of the source.

How the values were obtained:
Format in all cases: cell-based
VCaP cells = assay: Inhibition of proliferation of VCaP cells (WST-8); conditions: Homo sapiens, read-out: IC50 for inhibiting the proliferation of VCaP cells
Protocol: The inhibitory activity of the compounds disclosed in the present disclosure on the proliferation of VCaP cells
On the first day of the experiment, […] were inoculated in 96 well plates at a density of 15000 cells per well using DMEM medium containing 10% fetal bovine serum, with 100 μL of cell suspension per well. The cells were cultured in a cell culture incubator with 5% CO2 at 37° C. overnight. […] On the ninth day, 96 well plates were taken out, and 20 μL of WST-8 (Beytime, C0040) reagent was added to each well.

LNCaP FGC cells = assay: Inhibition of proliferation of LNCaP cells (WST-8); conditions: Homo sapiens, LNCaP, 96 h
Protocol: The cells were cultured in a cell culture incubator with 5% CO2 at 37° C. overnight. […] On the sixth day, 96 well plates were taken out, and 20 μL of WST-8 (Beytime, C0040) reagent was added to each well.

AR protein [1] = target: T1, AR protein (Homo sapiens, UniProt P10275, T878A); assay: Degradation of AR protein in LNCaP cells (Western blot); conditions: for inhibition at 0.01 µM: read-out: Degradation rates of the AR protein in LNCaP cells, 10 nM (%); for inhibition at 0.1 µM: read-out: Degradation rates of the AR protein in LNCaP cells, 100 nM (%)
T1 construct: degradation activity of the compounds disclosed in the present disclosure on AR protein in LNCaP cells; host or cells: LNCaP FGC
T1 sequence (P10275 1-920 T878A): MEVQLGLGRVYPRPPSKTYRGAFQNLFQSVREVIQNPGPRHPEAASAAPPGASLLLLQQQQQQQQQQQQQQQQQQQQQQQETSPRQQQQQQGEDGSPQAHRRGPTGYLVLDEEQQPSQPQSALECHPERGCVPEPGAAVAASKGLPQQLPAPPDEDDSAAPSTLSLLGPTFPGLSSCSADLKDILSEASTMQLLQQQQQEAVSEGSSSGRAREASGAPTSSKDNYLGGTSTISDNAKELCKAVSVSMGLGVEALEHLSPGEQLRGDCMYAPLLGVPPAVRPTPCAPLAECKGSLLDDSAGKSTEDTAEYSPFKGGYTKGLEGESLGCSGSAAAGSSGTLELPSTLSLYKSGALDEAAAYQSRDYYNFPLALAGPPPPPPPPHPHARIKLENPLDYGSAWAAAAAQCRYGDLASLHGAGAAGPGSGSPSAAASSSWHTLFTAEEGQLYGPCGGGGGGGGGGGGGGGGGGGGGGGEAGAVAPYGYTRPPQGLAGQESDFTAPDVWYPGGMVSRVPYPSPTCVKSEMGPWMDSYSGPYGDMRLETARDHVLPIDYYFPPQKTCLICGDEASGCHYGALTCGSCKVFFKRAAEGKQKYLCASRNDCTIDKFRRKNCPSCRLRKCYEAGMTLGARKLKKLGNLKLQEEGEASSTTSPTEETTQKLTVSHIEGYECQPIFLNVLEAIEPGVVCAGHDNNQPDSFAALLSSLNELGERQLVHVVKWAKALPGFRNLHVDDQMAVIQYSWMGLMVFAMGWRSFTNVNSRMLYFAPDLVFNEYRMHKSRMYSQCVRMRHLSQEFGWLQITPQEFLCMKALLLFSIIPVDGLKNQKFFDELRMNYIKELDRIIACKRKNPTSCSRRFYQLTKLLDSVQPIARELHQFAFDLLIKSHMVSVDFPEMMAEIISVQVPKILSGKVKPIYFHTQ
Method in brief: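 AR assessed by SDS-PAGE/Western blot with infrared imaging; band greyscale normalised to GAPDH gave percent degradation.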

AR protein [2] = target: T2, AR protein (Homo sapiens, UniProt P10275); assay: Degradation of AR protein in VCaP cells (Western blot); conditions: 8 hours; for inhibition at 0.01 µM: compound at 10 nM, read-out: Degradation rate of the AR protein in VCaP cells, 10 nM (%); for inhibition at 0.1 µM: compound at 100 nM, read-out: Degradation rate of the AR protein in VCaP cells, 100 nM (%)
T2 construct: degradation activity of the compounds disclosed in the present disclosure on AR protein in VCaP cells; host or cells: VCaP
T2 sequence (P10275 1-920): T1 sequence (P10275 1-920 T878A) with A878T
Method in brief: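 VCaP cells treated with compound alongside solvent controls for 8 h, then lysed in RIPA and protein quantified by BCA. AR detected by SDS-PAGE/Western blot with infrared imaging. Degradation rate calculated from band grayscale, with GAPDH as internal reference.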

[3] = VCaP cells, 168 hours, WST-8 absorbance at 450 nm
[4] = LNCaP FGC cells, 96 hours, WST-8 absorbance at 450 nm, read-out: IC50 for inhibiting the proliferation of LNCaP cells
[5] = read-out: IC50 for inhibiting the proliferation of LNCaP cells, LNCaP FGC cells, 96 hours, WST-8 absorbance at 450 nm
[6] = LNCaP cells, compound 10 nM, 8 hours, Western blot grayscale, GAPDH internal reference
[7] = LNCaP cells, compound 100 nM, 8 hours, Western blot grayscale, GAPDH internal reference

| IC50 (LNCaP FGC cells; [4]) | SMILES | IC50 (VCaP cells; VCaP, 168 h) | inhibition at 0.01 µM (AR protein [2]) | inhibition at 0.1 µM (AR protein [2]) | inhibition at 0.01 µM (AR protein [1]; [6]) | inhibition at 0.1 µM (AR protein [1]; [7]) | other results |
| --- | --- | --- | --- | --- | --- | --- | --- |
|  | CC1(C)C(=O)N(c2ccc(C#N)c(C(F)(F)F)c2)C(=S)N1c1ccc(C(=O)N2CCC3(CC2)CC(N2CCC4(CCc5cc6c(cc5O4)C(=O)N(C4CCC(=O)NC4=O)C6=O)CC2)C3)c(F)c1 (stereo not drawn) [Compound 103] |  |  |  |  |  | IC50 (VCaP cells; [3]): 2.74 µM |
| 0.56 µM | N#Cc1ccc(O[C@H]2CC[C@H](NC(=O)c3ccc(N4CC[C@@H](CN5CCC6(CCc7cc8c(cc7O6)C(=O)N(C6CCC(=O)NC6=O)C8=O)CC5)C4)nn3)CC2)cc1Cl (stereo partly drawn) [Compound 21] |  |  |  |  |  | IC50 (VCaP cells; [3]): 0.38 µM |
|  | CC1(C)C(=O)N(c2ccc(C#N)c(C(F)(F)F)c2)C(=S)N1c1ccc(C(=O)N2CCC3(CCC(N4CCC5(CC4)COc4cc6c(cc4C5)C(=O)N(C4CCC(=O)NC4=O)C6=O)CC3)CC2)c(F)c1 (stereo not drawn) [Compound 113] | 2.81 µM |  |  |  |  | IC50 (LNCaP FGC cells; [5]): 5.56 µM |
|  | CC1(C)C(=O)N(c2ccc(C#N)c(C(F)(F)F)c2)C(=S)N1c1ccc(C(=O)N2CCC(N3CCC4(CCc5cc6c(cc5O4)C(=O)N(C4CCC(=O)NC4=O)C6=O)CC3)CC2)c(F)c1 (stereo not drawn) [Compound 101] | 3.75 µM |  |  |  |  |  |
| 4.55 µM | COC1(CN2CCC3(CCc4cc5c(cc4O3)C(=O)N(C3CCC(=O)NC3=O)C5)CC2)CCN(c2ccc(C(=O)N[C@H]3CC[C@H](Oc4ccc(C#N)c(Cl)c4)CC3)nn2)CC1 (stereo partly drawn) [Compound 131] |  |  |  |  |  | IC50 (VCaP cells; [3]): 2.27 µM |
|  | CC1(C)C(=O)N(c2ccc(C#N)c(C(F)(F)F)c2)C(=S)N1c1ccc(C(=O)N2CC(N3CCC4(CCc5cc6c(cc5O4)C(=O)N(C4CCC(=O)NC4=O)C6=O)CC3)C2)c(F)c1 (stereo not drawn) [Compound 102] | 3.88 µM |  |  |  |  |  |
|  | CC1(C)C(=O)N(c2ccc(C#N)c(C(F)(F)F)c2)C(=S)N1c1ccc(C(=O)N2CCC3(CCC(N4CCC5(CC4)COc4cc6c(cc4C5)C(=O)N(C4CCC(=O)NC4=O)C6=O)CC3)C2)c(F)c1 (stereo not drawn) [Compound 130] | 3.61 µM |  |  |  |  | IC50 (LNCaP FGC cells; [5]): 2.66 µM |
|  | CC1(C)C(=O)N(c2ccc(C#N)c(C(F)(F)F)c2)C(=S)N1c1ccc(C(=O)N2CC(N3CCC4(CCc5cc6c(cc5O4)C(=O)N(C4CCC(=O)NC4=O)C6)CC3)C2)c(F)c1 (stereo not drawn) [Compound 105] | 2.96 µM |  |  |  |  |  |
|  | CC1(C)C(=O)N(c2ccc(C#N)c(C(F)(F)F)c2)C(=S)N1c1ccc(C(=O)N2CC3(CC(N4CCC5(CC4)COc4cc6c(cc45)C(=O)N(C4CCC(=O)NC4=O)C6=O)C3)C2)c(F)c1 (stereo not drawn) [Compound 92] | 4.09 µM |  |  |  |  |  |
|  | N#Cc1ccc(O[C@H]2CC[C@H](NC(=O)c3ccc(N4CC(N5CCC6(CCc7cc8c(cc7O6)C(=O)N(C6CCC(=O)NC6=O)C8)CC5)C4)nn3)CC2)cc1Cl (stereo partly drawn) [Compound 46] | 0.11 µM | 39% | 59% |  |  | inhibition at 0.01 µM (AR protein [1]; LNCaP, 8 h): 35%; inhibition at 0.1 µM (AR protein [1]; LNCaP, 8 h): 47% |
|  | CC1(C)C(=O)N(c2ccc(C#N)c(C(F)(F)F)c2)C(=S)N1c1ccc(C(=O)N2CCC(F)(CN3CCC4(CCc5cc6c(cc5O4)C(=O)N(C4CCC(=O)NC4=O)C6=O)CC3)CC2)c(F)c1 (stereo not drawn) [Compound 97] | 1.3 µM |  |  |  |  |  |
|  | COc1cc(O[C@H]2CC[C@H](NC(=O)c3cnc(N4CCC(CN5CC6(CCc7cc8c(cc7O6)C(=O)N(C6CCC(=O)NC6=O)C8=O)C5)(OC)CC4)nc3)CC2)ccc1C#N (stereo partly drawn) [Compound 232] |  | 37% | 43% | 33% | 36% | IC50 (VCaP cells; [3]): 4.41 µM |
|  | CC1(C)C(=O)N(c2ccc(C#N)c(C(F)(F)F)c2)C(=S)N1c1ccc(C(=O)N2CC(CN3CCC4(CCc5cc6c(cc5O4)C(=O)N(C4CCC(=O)NC4=O)C6=O)CC3)C2)c(F)c1 (stereo not drawn) [Compound 84] | 4.57 µM |  |  |  |  |  |
| 13.6 µM | N#Cc1ccc(O[C@H]2CC[C@H](NC(=O)c3ccc(N4CC5(CCC(N6CCC7(CCc8ccc9c(c8O7)CN(C7CCC(=O)NC7=O)C9=O)CC6)CC5)C4)nn3)CC2)cc1Cl (stereo partly drawn) [Compound 153] |  | 35% | 76% | 23% | 19% |  |
|  | CC1(C)C(=O)N(c2ccc(C#N)c(C(F)(F)F)c2)C(=S)N1c1ccc(C(=O)N2CCC(CN3CCC4(CCc5cc6c(cc5O4)C(=O)N(C4CCC(=O)NC4=O)C6=O)CC3)CC2)c(F)c1 (stereo not drawn) [Compound 99] | 3.8 µM |  |  |  |  |  |
| 84.9 µM | COc1cc(O[C@H]2C(C)(C)[C@H](NC(=O)c3ccc(N4CCC(F)(CN5CC6(CCc7ccc8c(c7O6)C(=O)N(C6CCC(=O)NC6=O)C8=O)C5)CC4)cc3)C2(C)C)ccc1C#N (stereo partly drawn) [Compound 274] |  | 4% | -13% | -3% | -5% |  |

| SMILES | IC50 (LNCaP FGC cells; [4]) | IC50 (VCaP cells; VCaP, 168 h) | inhibition at 0.01 µM (AR protein [2]) | inhibition at 0.1 µM (AR protein [2]) | inhibition at 0.01 µM (AR protein [1]; [6]) | inhibition at 0.1 µM (AR protein [1]; [7]) | other results |
| --- | --- | --- | --- | --- | --- | --- | --- |
| N#Cc1ccc(O[C@H]2CC[C@H](NC(=O)c3ccc(C#CC4CC5(C4)CC(N4CCC6(CC4)COc4c6ccc6c4CN(C4CCC(=O)NC4=O)C6=O)C5)nn3)CC2)cc1Cl (stereo partly drawn) [Compound 252] | 6.24 µM |  | 80% | 87% | 56% | 70% |  |
| COc1cc(O[C@H]2C(C)(C)[C@H](NC(=O)c3ccc(N4CCC(F)(CN5CCC6(CC5)COc5c6ccc6c5CN(C5CCC(=O)NC5=O)C6=O)CC4)cc3)C2(C)C)ccc1C#N (stereo partly drawn) [Compound 223] | 0.009 µM |  | -3% | 52% | 27% | 20% |  |
| COc1cc(O[C@H]2C(C)(C)[C@H](NC(=O)c3ccc(N4CCC(C#N)(CN5CCC6(CC5)COc5c6ccc6c5CN(C5CCC(=O)NC5=O)C6=O)CC4)nn3)C2(C)C)ccc1C#N (stereo partly drawn) [Compound 224] | 0.011 µM |  | 24% | 57% | 41% | 52% |  |
